Reference: ChEMBL document CHEMBL1132901, “Synthesis and structure-activity relationships of quaternary ammonium cephalosporins with 3-pyrazolylpyridinium derivatives” (2000)
≈ marks a conversion by molar mass, not a printed value.

What follows are compounds tested on Escherichia coli (assay: In vitro antimicrobial activity against Escherichia coli TEM). Conditions: not given.
Type: functional

SMILES	MIC [µg/mL]
CO/N=C(/C(=O)N[C@@H]1C(=O)N2C(C(=O)[O-])=C(C[n+]3cccc(-c4cc(N)n(CCO)n4)c3)CS[C@H]12)c1csc(N)n1	0.098 (≈ 0.163 µM)
CO/N=C(/C(=O)N[C@@H]1C(=O)N2C(C(=O)[O-])=C(C[n+]3cccc(-c4cc(N)n(C)n4)c3)CS[C@H]12)c1csc(N)n1	0.098 (≈ 0.172 µM)

The compounds below were run on Pseudomonas aeruginosa (assay: In vitro antimicrobial activity against Pseudomonas aeruginosa 1592 E). Conditions: not given.
Type: functional

SMILES	MIC [µg/mL]
CO/N=C(/C(=O)N[C@@H]1C(=O)N2C(C(=O)[O-])=C(C[n+]3cccc(-c4cc(N)n(CCO)n4)c3)CS[C@H]12)c1csc(N)n1	6.25 (≈ 10.4 µM)
CO/N=C(/C(=O)N[C@@H]1C(=O)N2C(C(=O)[O-])=C(C[n+]3cccc(-c4cc(N)n(C)n4)c3)CS[C@H]12)c1csc(N)n1	3.12 (≈ 5.49 µM)

What follows are compounds tested on Enterobacter cloacae (assay: In vitro antimicrobial activity against Enterobacter cloacae P99). Conditions: not given.
Type: functional

SMILES	MIC [µg/mL]
CO/N=C(/C(=O)N[C@@H]1C(=O)N2C(C(=O)[O-])=C(C[n+]3cccc(-c4cc(N)n(CCO)n4)c3)CS[C@H]12)c1csc(N)n1	50 (≈ 83.4 µM)
CO/N=C(/C(=O)N[C@@H]1C(=O)N2C(C(=O)[O-])=C(C[n+]3cccc(-c4cc(N)n(C)n4)c3)CS[C@H]12)c1csc(N)n1	25 (≈ 43.9 µM)

The compounds below were run on Staphylococcus aureus (assay: In vitro antimicrobial activity against Methicillin resistant Staphylococcus aureus (MRSA)). Conditions: not given.
Type: functional

SMILES	MIC [µg/mL]
CO/N=C(/C(=O)N[C@@H]1C(=O)N2C(C(=O)[O-])=C(C[n+]3cccc(-c4cc(N)n(CCO)n4)c3)CS[C@H]12)c1csc(N)n1	12.5 (≈ 20.8 µM)
CO/N=C(/C(=O)N[C@@H]1C(=O)N2C(C(=O)[O-])=C(C[n+]3cccc(-c4cc(N)n(C)n4)c3)CS[C@H]12)c1csc(N)n1	50 (≈ 87.8 µM)

These compounds were tested on Pseudomonas aeruginosa (assay: In vitro antimicrobial activity against Pseudomonas aeruginosa 9027). Conditions: not given.
Type: functional

SMILES	MIC [µg/mL]
CO/N=C(/C(=O)N[C@@H]1C(=O)N2C(C(=O)[O-])=C(C[n+]3cccc(-c4cc(N)n(CCO)n4)c3)CS[C@H]12)c1csc(N)n1	12.5 (≈ 20.8 µM)
CO/N=C(/C(=O)N[C@@H]1C(=O)N2C(C(=O)[O-])=C(C[n+]3cccc(-c4cc(N)n(C)n4)c3)CS[C@H]12)c1csc(N)n1	6.25 (≈ 11 µM)

What follows are compounds tested on Pseudomonas aeruginosa (assay: In vitro antimicrobial activity against Pseudomonas aeruginosa 1771). Conditions: not given.
Type: functional

SMILES	MIC [µg/mL]
CO/N=C(/C(=O)N[C@@H]1C(=O)N2C(C(=O)[O-])=C(C[n+]3cccc(-c4cc(N)n(CCO)n4)c3)CS[C@H]12)c1csc(N)n1	3.12 (≈ 5.21 µM)
CO/N=C(/C(=O)N[C@@H]1C(=O)N2C(C(=O)[O-])=C(C[n+]3cccc(-c4cc(N)n(C)n4)c3)CS[C@H]12)c1csc(N)n1	1.56 (≈ 2.74 µM)

Each compound was assayed on Staphylococcus aureus (assay: In vitro antimicrobial activity against Staphylococcus aureus 503). Conditions: not given.
Type: functional

SMILES	MIC [µg/mL]
CO/N=C(/C(=O)N[C@@H]1C(=O)N2C(C(=O)[O-])=C(C[n+]3cccc(-c4cc(N)n(CCO)n4)c3)CS[C@H]12)c1csc(N)n1	0.391 (≈ 0.652 µM)
CO/N=C(/C(=O)N[C@@H]1C(=O)N2C(C(=O)[O-])=C(C[n+]3cccc(-c4cc(N)n(C)n4)c3)CS[C@H]12)c1csc(N)n1	0.391 (≈ 0.686 µM)

The compounds below were run on Pseudomonas aeruginosa (assay: In vitro antimicrobial activity against Pseudomonas aeruginosa 1771 M). Conditions: not given.
Type: functional

SMILES	MIC [µg/mL]
CO/N=C(/C(=O)N[C@@H]1C(=O)N2C(C(=O)[O-])=C(C[n+]3cccc(-c4cc(N)n(CCO)n4)c3)CS[C@H]12)c1csc(N)n1	0.391 (≈ 0.652 µM)
CO/N=C(/C(=O)N[C@@H]1C(=O)N2C(C(=O)[O-])=C(C[n+]3cccc(-c4cc(N)n(C)n4)c3)CS[C@H]12)c1csc(N)n1	0.391 (≈ 0.686 µM)

What follows are compounds tested on Streptococcus pyogenes (assay: In vitro antimicrobial activity against Streptococcus pyogenes 77A). Conditions: not given.
Type: functional

SMILES	MIC [µg/mL]
CO/N=C(/C(=O)N[C@@H]1C(=O)N2C(C(=O)[O-])=C(C[n+]3cccc(-c4cc(N)n(CCO)n4)c3)CS[C@H]12)c1csc(N)n1	0.013 (≈ 0.0217 µM)
CO/N=C(/C(=O)N[C@@H]1C(=O)N2C(C(=O)[O-])=C(C[n+]3cccc(-c4cc(N)n(C)n4)c3)CS[C@H]12)c1csc(N)n1	0.007 (≈ 0.0123 µM)

Each compound was assayed on Staphylococcus aureus (assay: In vitro antimicrobial activity against Staphylococcus aureus 285). Conditions: not given.
Type: functional

SMILES	MIC [µg/mL]
CO/N=C(/C(=O)N[C@@H]1C(=O)N2C(C(=O)[O-])=C(C[n+]3cccc(-c4cc(N)n(CCO)n4)c3)CS[C@H]12)c1csc(N)n1	1.56 (≈ 2.61 µM)
CO/N=C(/C(=O)N[C@@H]1C(=O)N2C(C(=O)[O-])=C(C[n+]3cccc(-c4cc(N)n(C)n4)c3)CS[C@H]12)c1csc(N)n1	0.781 (≈ 1.37 µM)

What follows are compounds tested on Streptococcus pyogenes (assay: In vitro antimicrobial activity against Streptococcus pyogenes A 308). Conditions: not given.
Type: functional

SMILES	MIC [µg/mL]
CO/N=C(/C(=O)N[C@@H]1C(=O)N2C(C(=O)[O-])=C(C[n+]3cccc(-c4cc(N)n(CCO)n4)c3)CS[C@H]12)c1csc(N)n1	0.025 (≈ 0.0417 µM)
CO/N=C(/C(=O)N[C@@H]1C(=O)N2C(C(=O)[O-])=C(C[n+]3cccc(-c4cc(N)n(C)n4)c3)CS[C@H]12)c1csc(N)n1	0.013 (≈ 0.0228 µM)

What follows are compounds tested on Escherichia coli (assay: In vitro antimicrobial activity against Escherichia coli DC 0). Conditions: not given.
Type: functional

SMILES	MIC [µg/mL]
CO/N=C(/C(=O)N[C@@H]1C(=O)N2C(C(=O)[O-])=C(C[n+]3cccc(-c4cc(N)n(CCO)n4)c3)CS[C@H]12)c1csc(N)n1	0.025 (≈ 0.0417 µM)
CO/N=C(/C(=O)N[C@@H]1C(=O)N2C(C(=O)[O-])=C(C[n+]3cccc(-c4cc(N)n(C)n4)c3)CS[C@H]12)c1csc(N)n1	0.025 (≈ 0.0439 µM)

These compounds were tested on Escherichia coli (assay: In vitro antimicrobial activity against Escherichia coli 1507E). Conditions: not given.
Type: functional

SMILES	MIC [µg/mL]
CO/N=C(/C(=O)N[C@@H]1C(=O)N2C(C(=O)[O-])=C(C[n+]3cccc(-c4cc(N)n(CCO)n4)c3)CS[C@H]12)c1csc(N)n1	0.098 (≈ 0.163 µM)
CO/N=C(/C(=O)N[C@@H]1C(=O)N2C(C(=O)[O-])=C(C[n+]3cccc(-c4cc(N)n(C)n4)c3)CS[C@H]12)c1csc(N)n1	0.049 (≈ 0.086 µM)

The compounds below were run on Escherichia coli (assay: In vitro antimicrobial activity against Escherichia coli DC 2). Conditions: not given.
Type: functional

SMILES	MIC [µg/mL]
CO/N=C(/C(=O)N[C@@H]1C(=O)N2C(C(=O)[O-])=C(C[n+]3cccc(-c4cc(N)n(CCO)n4)c3)CS[C@H]12)c1csc(N)n1	0.013 (≈ 0.0217 µM)
CO/N=C(/C(=O)N[C@@H]1C(=O)N2C(C(=O)[O-])=C(C[n+]3cccc(-c4cc(N)n(C)n4)c3)CS[C@H]12)c1csc(N)n1	0.013 (≈ 0.0228 µM)

Each compound was assayed on Escherichia coli (assay: In vitro antimicrobial activity against Escherichia coli 055). Conditions: not given.
Type: functional

SMILES	MIC [µg/mL]
CO/N=C(/C(=O)N[C@@H]1C(=O)N2C(C(=O)[O-])=C(C[n+]3cccc(-c4cc(N)n(CCO)n4)c3)CS[C@H]12)c1csc(N)n1	0.025 (≈ 0.0417 µM)
CO/N=C(/C(=O)N[C@@H]1C(=O)N2C(C(=O)[O-])=C(C[n+]3cccc(-c4cc(N)n(C)n4)c3)CS[C@H]12)c1csc(N)n1	0.025 (≈ 0.0439 µM)

What follows are compounds tested on Klebsiella aerogenes (assay: In vitro antimicrobial activity against Klebsiella aerogenes 1522 E). Conditions: not given.
Type: functional

SMILES	MIC [µg/mL]
CO/N=C(/C(=O)N[C@@H]1C(=O)N2C(C(=O)[O-])=C(C[n+]3cccc(-c4cc(N)n(CCO)n4)c3)CS[C@H]12)c1csc(N)n1	0.049 (≈ 0.0817 µM)
CO/N=C(/C(=O)N[C@@H]1C(=O)N2C(C(=O)[O-])=C(C[n+]3cccc(-c4cc(N)n(C)n4)c3)CS[C@H]12)c1csc(N)n1	0.025 (≈ 0.0439 µM)

Each compound was assayed on Streptococcus pyogenes (assay: In vitro antimicrobial activity against Streptococcus pyogenes SG 511). Conditions: not given.
Type: functional

SMILES	MIC [µg/mL]
CO/N=C(/C(=O)N[C@@H]1C(=O)N2C(C(=O)[O-])=C(C[n+]3cccc(-c4cc(N)n(CCO)n4)c3)CS[C@H]12)c1csc(N)n1	0.781 (≈ 1.3 µM)
CO/N=C(/C(=O)N[C@@H]1C(=O)N2C(C(=O)[O-])=C(C[n+]3cccc(-c4cc(N)n(C)n4)c3)CS[C@H]12)c1csc(N)n1	0.781 (≈ 1.37 µM)

These compounds were tested on Salmonella typhimurium (assay: In vitro antimicrobial activity against Salmonella Typhimurium). Conditions: Salmonella enterica.
Type: functional, Salmonella enterica subsp. enterica serovar Typhimurium

SMILES	MIC [µg/mL]
CO/N=C(/C(=O)N[C@@H]1C(=O)N2C(C(=O)[O-])=C(C[n+]3cccc(-c4cc(N)n(CCO)n4)c3)CS[C@H]12)c1csc(N)n1	0.098 (≈ 0.163 µM)
CO/N=C(/C(=O)N[C@@H]1C(=O)N2C(C(=O)[O-])=C(C[n+]3cccc(-c4cc(N)n(C)n4)c3)CS[C@H]12)c1csc(N)n1	0.049 (≈ 0.086 µM)

What follows are compounds tested on Enterococcus faecium (assay: In vitro antimicrobial activity against Streptococcus faecium MD 8b). Conditions: not given.
Type: functional

SMILES	MIC [µg/mL]
CO/N=C(/C(=O)N[C@@H]1C(=O)N2C(C(=O)[O-])=C(C[n+]3cccc(-c4cc(N)n(CCO)n4)c3)CS[C@H]12)c1csc(N)n1	1.56 (≈ 2.61 µM)
CO/N=C(/C(=O)N[C@@H]1C(=O)N2C(C(=O)[O-])=C(C[n+]3cccc(-c4cc(N)n(C)n4)c3)CS[C@H]12)c1csc(N)n1	1.56 (≈ 2.74 µM)

Each compound was assayed on Klebsiella oxytoca (assay: In vitro antimicrobial activity against Klebsiella oxytoca 1082). Conditions: not given.
Type: functional

SMILES	MIC [µg/mL]
CO/N=C(/C(=O)N[C@@H]1C(=O)N2C(C(=O)[O-])=C(C[n+]3cccc(-c4cc(N)n(CCO)n4)c3)CS[C@H]12)c1csc(N)n1	3.12 (≈ 5.21 µM)
CO/N=C(/C(=O)N[C@@H]1C(=O)N2C(C(=O)[O-])=C(C[n+]3cccc(-c4cc(N)n(C)n4)c3)CS[C@H]12)c1csc(N)n1	1.56 (≈ 2.74 µM)

Each compound was assayed on Enterobacter cloacae (assay: In vitro antimicrobial activity against Enterobacter 1321 E). Conditions: not given.
Type: functional

SMILES	MIC [µg/mL]
CO/N=C(/C(=O)N[C@@H]1C(=O)N2C(C(=O)[O-])=C(C[n+]3cccc(-c4cc(N)n(CCO)n4)c3)CS[C@H]12)c1csc(N)n1	0.025 (≈ 0.0417 µM)
CO/N=C(/C(=O)N[C@@H]1C(=O)N2C(C(=O)[O-])=C(C[n+]3cccc(-c4cc(N)n(C)n4)c3)CS[C@H]12)c1csc(N)n1	0.025 (≈ 0.0439 µM)
